Data taken from PubChem BioAssay (NCI).
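Results reflect a 48-hour exposure of cells in 96-well plates to compound at five concentrations. The concentration for full growth arrest is given as TGI.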

Assays:
Assay in all cases: NCI-60 cell line screen, 48 h
[1] = test system: A498 renal
[2] = test system: ACHN renal
[3] = test system: CCRF-CEM leukemia
[4] = test system: HOP-92 NSCLC
[5] = test system: K-562 leukemia
[6] = test system: NCI/ADR-RES ovarian
[7] = test system: OVCAR-4 ovarian
[8] = test system: SW-620 colon
[9] = test system: UACC-257 melanoma
[10] = test system: SK-MEL-2 melanoma
[11] = test system: MCF7 breast

`Nc1cccc2cc(Cl)cnc12` was tested, and the TGI [1] was greater than 100 µM, the TGI [2] was greater than 100 µM and the TGI [3] was greater than 100 µM. The TGI [4] was greater than 100 µM, the TGI [5] was greater than 100 µM and the TGI [6] was greater than 100 µM. For the same compound, the TGI [7] was greater than 100 µM, the TGI [8] was greater than 100 µM and the TGI [9] was greater than 100 µM.

In the case of `COC(=O)[C@H](Cc1c[nH]c2ccccc12)NP(=O)(O)OCC1C=CC(n2cc(C)c(=O)[nH]c2=O)O1` (some centres undefined), the TGI [1] is reported as greater than 100 µM, the TGI [3] is reported as greater than 100 µM and the TGI [4] is reported as greater than 100 µM. The TGI [5] was greater than 100 µM, the TGI [6] was greater than 100 µM and the TGI [7] was greater than 100 µM. For the same compound, the TGI [10] was greater than 100 µM and the TGI [8] was greater than 100 µM.

`FC(F)(F)c1cc(Cl)cnc1N/N=C(/c1ccccc1)c1ccccn1` was tested, and the TGI [2] was 11.8 µM, the TGI [3] was 4.85 µM and the TGI [4] was 16.3 µM. The TGI [5] was 49.9 µM, the TGI [11] was 17 µM and the TGI [6] was 6.76 µM. The TGI [7] was 29.4 µM, the TGI [10] was 20.1 µM and the TGI [8] was greater than 100 µM. It also gave a TGI [9] of 16.5 µM.

`CCOC(=O)C(NC(C)=O)(Nc1ccc(F)cc1)C(F)(F)F` (centres undefined) gave a TGI [2] greater than 100 µM, a TGI [3] greater than 100 µM and a TGI [4] greater than 100 µM. For the same compound, the TGI [5] was greater than 100 µM, the TGI [11] was greater than 100 µM and the TGI [6] was greater than 100 µM. The TGI [7] was greater than 100 µM, the TGI [10] was greater than 100 µM and the TGI [8] was greater than 100 µM. For the same compound, the TGI [9] was greater than 100 µM.

Work on `COc1cc(/C=C2\S/C(=N/Nc3nc(-c4ccc(Br)cc4)cs3)NC2=O)cc(OC)c1OC` yielded a TGI [2] of 25.4 µM, a TGI [3] of 10.3 µM and a TGI [4] of 18.3 µM. It also gave a TGI [11] greater than 100 µM, a TGI [6] of 35.1 µM and a TGI [7] of 85 µM. It also gave a TGI [10] of 35.8 µM, a TGI [8] of 30.8 µM and a TGI [9] of 44.9 µM.

For `Oc1ccc(-c2nc(-c3cccnc3)c(-c3ccc(F)cc3)[nH]2)cc1`, the TGI [2] was 58.5 µM, the TGI [3] was 42.1 µM and the TGI [5] was 54.6 µM. The TGI [11] was 32.7 µM, the TGI [6] was 42.6 µM and the TGI [7] was 52.7 µM. For the same compound, the TGI [10] was 34.6 µM, the TGI [8] was 35.5 µM and the TGI [9] was 31.5 µM.

With `Cc1cccc2c(=O)cc(-c3ccccc3)[nH]c12` the TGI [1] was 36 µM, the TGI [2] was greater than 100 µM and the TGI [3] was greater than 100 µM. It also gave a TGI [5] greater than 100 µM, a TGI [7] of 35.7 µM and a TGI [10] greater than 100 µM. The TGI [8] was greater than 100 µM and the TGI [9] was greater than 100 µM.

In the case of `CNC(=O)C(C)C1CCC2(C)C=CC(=O)C(C)=C2C1O` (centres undefined), the TGI [1] is reported as greater than 100 µM, the TGI [3] is reported as greater than 100 µM and the TGI [4] is reported as greater than 100 µM. The TGI [5] was greater than 100 µM, the TGI [11] was greater than 100 µM and the TGI [6] was greater than 71.7 µM. It also gave a TGI [7] greater than 100 µM, a TGI [10] greater than 100 µM and a TGI [8] greater than 100 µM. The TGI [9] was greater than 100 µM.

In the case of `N#CC1=C(N)N(c2ccccc2)C(c2ccco2)C1(C#N)C#N` (centres undefined), the TGI [1] is reported as 49.1 µM, the TGI [2] is reported as 32 µM and the TGI [3] is reported as 43.9 µM. For the same compound, the TGI [5] was 37.5 µM, the TGI [11] was 43.9 µM and the TGI [6] was 56.2 µM. The TGI [7] was 49 µM, the TGI [10] was 59.4 µM and the TGI [8] was 39.2 µM. It also gave a TGI [9] of 37.2 µM.

`CC[C@@]1(C[C@H]2C[C@@]3(C(=O)OC)c4[nH]c5ccccc5c4CCN3C2=O)COC2(CCCCC2)O1` was tested, and the TGI [2] was greater than 100 µM, the TGI [5] was greater than 100 µM and the TGI [11] was 91.4 µM. It also gave a TGI [6] greater than 100 µM, a TGI [7] greater than 100 µM and a TGI [10] of 96.3 µM. It also gave a TGI [9] of 64.2 µM.

Work on `O=[N+]([O-])/C(C(Cl)=C(Cl)Cl)=C(\SCc1ccccc1)N1CCCCC1` yielded a TGI [1] of 70.1 µM, a TGI [2] of 37.6 µM and a TGI [3] of 30.5 µM. The TGI [4] was 0.529 µM, the TGI [5] was greater than 100 µM and the TGI [11] was 32.2 µM. The TGI [7] was 51.5 µM, the TGI [10] was 55 µM and the TGI [9] was 77.2 µM.
